Experimental data from ChEMBL document CHEMBL1156236, “Trypanoside, anti-tuberculosis, leishmanicidal, and cytotoxic activities of tetrahydrobenzothienopyrimidines” (Bioorg Med Chem, 2010).
Converted amounts (≈) assume the structure as drawn.

What was measured:
[1] = tested on: MCF7; test: Cytotoxicity against human MCF7 cells; format: functional
[2] = tested on: Vero; test: Cytotoxicity against african green monkey Vero cells after 72 hrs by MTS assay; conditions: Chlorocebus sabaeus, Vero, 72 h
[3] = tested on: DU-145; test: Cytotoxicity against human DU145 cells; format: functional
[4] = Cytotoxicity against BALB mouse 3T3 cells; format: cell-based; conditions: BALB 3T3 cells
[5] = tested on: NCI-H460; test: Cytotoxicity against human NCI-H460 cells; format: functional
[6] = tested on: M14; test: Cytotoxicity against human M14 cells; format: functional
[7] = Selectivity index, ratio of IC50 for BALB/c mouse macrophages to IC50 for Leishmania amazonensis MHOM/BR/76/LTB-012
[8] = tested on: HT-29; test: Cytotoxicity against human HT-29 cells; format: functional
[9] = tested on: Leishmania amazonensis; test: Antileishmanial activity against Leishmania amazonensis MHOM/BR/76/LTB-012 amastigotes infected BALB/c mouse macrophages after 48 hrs by MTT assay; format: functional, organism-based; conditions: MHOM/BR/76/LTB-012, 48 h
[10] = Selectivity index, ratio of IC50 for african green monkey Vero cells to MIC for Mycobacterium tuberculosis H37Rv ATCC 27294 by microplate alamar blue assay; format: functional
[11] = tested on: Mycobacterium tuberculosis; test: Antitubercular activity against Mycobacterium tuberculosis H37Rv ATCC 27294 after 7 days by microplate alamar blue assay; format: functional; conditions: H37Rv ATCC 27294, 168 h
[12] = Cytotoxicity against BALB/c mouse macrophages after 48 hrs by trypan blue dye exclusion method; format: cell-based; conditions: Macrophage
[13] = tested on: K562; test: Cytotoxicity against human K562 cells; format: functional
[14] = Selectivity index, ratio of IC50 for african green monkey Vero cells to IC50 for Trypanosoma cruzi tulahuen C4; conditions: Vero cells
[15] = tested on: Trypanosoma cruzi; test: Antitrypanosomal activity against Trypanosoma cruzi tulahuen C4 trypomastigotes infected in african green monkey Vero cells assessed as CPRG cleavage after 120 hrs by microplate reader; format: functional, organism-based
[16] = Selectivity index, ratio of IC50 for african green monkey Vero cells to MIC for Mycobacterium tuberculosis H37Rv ATCC 27294 by low oxygen recovery assay; format: functional
[17] = tested on: Mycobacterium tuberculosis; test: Antitubercular activity against Mycobacterium tuberculosis H37Rv ATCC 27294 after 7 days by low oxygen recovery assay; format: functional; conditions: H37Rv ATCC 27294, 168 h
[18] = tested on: Leishmania amazonensis; test: Antileishmanial activity against Leishmania amazonensis Lma CL1 amastigotes infected BALB/c mouse macrophages after 48 hrs by Giemsa staining method; format: functional, organism-based; conditions: Lma CL1, 48 h
[19] = tested on: Leishmania braziliensis; test: Antileishmanial activity against Leishmania braziliensis MHOM/PE/PER006 promastigote infected BALB/c mouse macrophages after 48 hrs by Giemsa staining method; format: functional, organism-based; conditions: MHOM/PE/PER006, 48 h
[20] = tested on: Leishmania peruviana; test: Antileishmanial activity against Leishmania peruviana MHOM/PE/LCA08 promastigote infected BALB/c mouse macrophages after 48 hrs by Giemsa staining method; format: functional, organism-based; conditions: MHOM/PE/LCA08, 48 h

| SMILES | GI50 [1] [µM] | IC50 [2] [µM] | GI50 [3] [µM] | GI50 [4] [µM] | GI50 [5] [µM] | GI50 [6] [µM] | Ratio IC50 [7] | GI50 [8] [µM] | IC50 [9] [µM] | Ratio IC50 [10] | MIC [11] [µM] | IC50 [12] [µM] | GI50 [13] [µM] | selectivity ratio [14] | IC50 [15] [µM] | Ratio IC50 [16] | MIC [17] [µM] | IC50 [18] [µM] | IC50 [19] [µM] | IC50 [20] [µM] |
| --- | --- | --- | --- | --- | --- | --- | --- | --- | --- | --- | --- | --- | --- | --- | --- | --- | --- | --- | --- | --- |
| Brc1ccccc1/C=N/Nc1ncnc2sc3c(c12)CCCC3 | 4.5 | 7.7 | 7.1 | 11.2 | 7.7 | 15.4 | 5.8 | 8 | 1.3 | 0.8 | 24.3 (≈ 9.41 µg/mL) | 7.4 | 3 | 0.8 | 9.3 | – | – | – | – | – |
| Fc1ccc(/C=N/Nc2ncnc3sc4c(c23)CCCC4)cc1 | 7.4 | 18.4 | 13.9 | 20.5 | 9.4 | 17.6 | 1 | 10.4 | 9.7 | 0.6 | 71.1 (≈ 23.2 µg/mL) | 9.4 | 8.9 | 1 | 18.4 | – | – | – | – | – |
| FC(F)(F)c1ccc(/C=N/Nc2ncnc3sc4c(c23)CCCC4)cc1 | 5.4 | 8 | 14.8 | 10.8 | 15.3 | 16.9 | 4.1 | 7 | 2 | 5.5 | 16.2 (≈ 6.1 µg/mL) | 8.1 | 6.6 | 0.8 | 10.5 | 5.6 | 15.9 (≈ 5.98 µg/mL) | – | – | – |
| FC(F)(F)c1ccccc1/C=N/Nc1ncnc2sc3c(c12)CCCC3 | 4.8 | 8 | 3.5 | 15.8 | 5.4 | 6.5 | 2.6 | 4.5 | 1.2 | 1.3 | 15.7 (≈ 5.91 µg/mL) | 3.1 | 1.7 | 0.6 | 13.8 | – | 15.4 (≈ 5.8 µg/mL) | – | – | – |
| Brc1ccc(/C=N/Nc2ncnc3sc4c(c23)CCCC4)cc1 | 5.9 | 15.5 | 14.6 | 17.4 | 10.5 | 33.6 | 8.8 | 12.4 | 0.9 | – | > 250 | 7.8 | 5.7 | 0.8 | 20.3 | – | – | > 2 | > 2 | > 2 |
| CC(C)(C)/C=N/Nc1ncnc2sc3c(c12)CCCC3 | 26 | – | 25.1 | 7.3 | 24.5 | 32.7 | 1.6 | 33 | 113 | 0.3 | 299 (≈ 86.3 µg/mL) | 176 | 27.5 | – | > 25 | – | – | – | – | – |
| CC(C)=NNc1ncnc2sc3c(c12)CCCC3 | 12.2 | 38.4 | 11.6 | > 3.5 | 9.3 | 23.3 | 5.9 | 33 | 40.6 | 0.5 | 240 (≈ 62.4 µg/mL) | 238 | 13.6 | 2.7 | 14.1 | – | – | – | – | – |
| C(=N\Nc1ncnc2sc3c(c12)CCCC3)/c1ccccc1 | 11.2 | 25.9 | 20 | 21.7 | 18.2 | 18 | 0.6 | 12.5 | 43.7 | 0.5 | 75.9 (≈ 23.4 µg/mL) | 28.3 | 13.2 | 1.8 | 14.4 | – | – | – | – | – |
